Laboratory results published in publication PMC11414412, “Design and synthesis new indole-based aromatase/iNOS inhibitors with apoptotic antiproliferative activity” (Frontiers in Chemistry, 2024).

Experiments:
Format in all cases: cell-based, human
Bcl-2 = Bcl-2 inhibition assay; conditions: lung (A-549) cancer cells; for Bcl-2 Conc: compound at IC50
Procedure: 4.2.8. Bcl-2 inhibition assay
Mix all reagents thoroughly without foaming before use. Wash the microwells twice with approximately 300 μL Wash Buffer per well with thorough aspiration of microwell contents between washes. Take caution not to scratch the surface of the microwells. After the last wash, empty the wells and tap microwell strips on absorbent pad or paper towel to remove excess Wash Buffer. Use the microwell strips immediately after washing or place upside down on a wet absorbent paper for not longer than 15 minutes. […] Add 100 μL of Sample […]
Diluent in duplicate to all standard wells and to the blank wells. Prepare standard (1:2 dilution) in duplicate ranging from 32 ng/mL to 0.5 ng/mL. Add 100 μL of Sample Diluent, in duplicate, to the blank wells. Add 80 μL of Sample Diluent, in duplicate, to the sample wells. Add 20 μL of each Sample, in duplicate, to the designated wells. Add 50 μL of diluted biotin-conjugate to all wells, including the blank wells. Cover with a plate cover and incubate at room temperature, on a microplate shaker at 100 rpm if available, for 2 hours. Remove plate cover and empty the wells.
Wash microwell strips 3 times as described in step 2. Add 100 μL of diluted Streptavidin-HRP to all wells, including the blank wells. Cover with a plate cover and incubate at room temperature, on a microplate shaker at 100 rpm if available, for 1 hour. Remove plate cover and empty the wells.
Wash microwell strips 3 times as described in step 2. Proceed to the next step. Pipette 100 μl of mixed TMB Substrate Solution to all wells, including the blanks. Incubate the microwell strips at room temperature (18° to 25°C) for about 15 minutes, if available on a rotator set at 100 rpm.
Avoid direct exposure to intense light. The point, at which the substrate reaction is stopped, is often determined by the ELISA reader. Many ELISA readers record absorbance only up to 2.0
O.D. Therefore, the color development within individual microwells must be watched by the person running the assay and the substrate reaction stopped before positive wells are no longer properly detectable. Stop the enzyme reaction by quickly pipetting 100 μL of Stop Solution into each well, including the blank wells. It is important that the Stop Solution is spread quickly and uniformly throughout the microwells to completely inactivate the enzyme. Results must be read immediately after the Stop Solution is added or within one hour i f the microwell strips are stored at 2 - 8°C in the dark. Read absorbance of each microwell on a spectrophotometer using 450 nm as the primary wavelength.

Caspase-3 = Caspase-3 activation assay; conditions: A-594 cells; for Caspase-3 Fold change: at IC50 concentration, vs untreated control; for Caspase-3 Conc: compound at its IC50 concentration
MCF-10A cells = test: Cell viability assay (MTT) on normal mammary epithelial cells; conditions: MCF-10A normal cells, 50 µM, 4 days incubation
Procedure: This test investigates the effects of the new compounds 3–16 on normal cell lines to determine their safety. The normal human mammary gland epithelial (MCF-10 A) cell line was used to test the viability of the tested compounds. After 4 days of incubation on MCF-10 A cells within 50 µM of each investigated compound, cell viability was determined using the MTT assay ([Gomaa et al., 2020]; [Marzouk et al., 2020]).
The normal human mammary gland epithelial (MCF-10A) cell line was used to test the viability of the tested compounds. After 4 days of incubation on MCF-10A cells within 50 µM of each investigated compound, cell viability was determined using the MTT assay ([Gomaa et al., 2020]; [Marzouk et al., 2020]). Refer to Supplementary Appendix SA1 (supp. File) for more details.
4.2. Biological evaluation
4.2.1 Cell Viability assay (MTT assay)
MTT assay was performed to investigate the effect of the synthesized compounds on mammary epithelial cells (MCF-10A). The cells were propagated in medium consisting of Ham's F-12 medium/ Dulbecco's modified Eagle's medium (DMEM) (1:1) supplemented with 10% foetal calf serum, 2 mM glutamine, insulin (10 μg/mL), hydrocortisone (500 ng/mL) and epidermal growth factor (20 ng/mL). Trypsin ethylenediamine tetra acetic acid (EDTA) was used to passage the cells after every 2-3 days. 96-well flat-bottomed cell culture plates were used to seed the cells at a density of 10^4 cells mL-1. The medium was aspirated from all the wells of culture plates after 24 h followed by the addition of synthesized compounds (in 200 μL medium to yield a final concentration of 0.1% (v/v) dimethyl sulfoxide) into individual wells of the plates. Four wells were designated to a single compound. The plates were allowed to incubate at 37°C for 96 h. Afterwards, the medium was aspirated and 3-[4,5-dimethylthiazol-2-yl]-2,5-diphenyltetrazolium bromide (MTT) (0.4 mg/mL) in medium was added to each well and subsequently incubated for 3 h. The medium was aspirated and 150 μL dimethyl sulfoxide (DMSO) was added to each well. The plates were vortexed followed by the measurement of absorbance at 540 nm on a microplate reader. The results were presented as inhibition (%) of proliferation in contrast to controls comprising 0.1%

Row | Compound | Bcl-2 Fold reduction (Bcl-2; at IC50, vs untreated control) | Bcl-2 Conc (Bcl-2) [ng/mL] | Caspase-3 Fold change (Caspase-3) | Caspase-3 Conc (Caspase-3) [pg/mL] | Cell viability % (MCF-10A cells)
1 | CCc1c2cc(Cl)ccc2n2cc(-c3ccccc3)[nH]c(=O)c12 [Compound 16, 8-Chloro-10-ethyl-3-phenylpyrazino [1,2-a]indol-1(2H)-one] | ~6 | 0.85 | 8 | 530 ± 5 | no effect
2 | CCc1c2cc(Cl)ccc2n2cc(Cc3ccccc3)n(C)c(=O)c12 [Compound 12, 3-Benzyl-8-chloro-10-ethyl-2-methylpyrazino[1,2-a]indol-1(2H)-one] | – | 0.65 | 9 | 580 ± 5 | no effect
